Reference: patent US10517889B2, “Modulators of SMAD7 expression” (Ionis Pharmaceuticals, Inc., priority 2017, dated 2019)
Strand notation (5' to 3'): a small letter for the sugar, then the base; units joined by * are phosphorothioate-linked, units joined directly phosphodiester-linked; [ ] holds rarer units or linkages, { } end groups; capitals alone tell only the bases. k = constrained ethyl (cEt); [5mC] = 5-methylcytosine; d = 2'-deoxy (DNA)

Each substance was assayed on human SMAD7 mRNA (assay: Antisense inhibition of human SMAD7 mRNA expression in Hep3B cells by 3-10-3 cEt gapmers, 10,000 nM, electroporation (Example 2)). Conditions: Hep3B cells, 10,000 nM antisense oligonucleotide, electroporation, approximately 24 hours, RT-PCR primer probe set RTS5062, relative to untreated control cells.
Type: cell-based
Procedure, shortened: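 Hep3B cells (20,000/well) were electroporated with 10,000 nM 3-10-3 cEt gapmer (16-mer, phosphorothioate, 5-methylcytosines) and harvested after about 24 h. SMAD7 mRNA quantified by RT-qPCR with primer probe set RTS5062, normalized to total RNA by RiboGreen; percent inhibition relative to untreated cells.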
With “798895 (kT*kG*kT*dA*dG*d[5mC]*dA*d[5mC]*dT*dG*dG*d[5mC]*d[5mC]*k[5mC]*k[5mC]*kA; antisense) [compound 798895]” the “% Inhibition” value was 53%.
In the case of “798896 (kG*kG*kG*dT*dG*dT*dA*dG*d[5mC]*dA*d[5mC]*dT*dG*kG*k[5mC]*k[5mC]; antisense) [compound 798896]”, the “% Inhibition” value was 46%.
“798897 (kG*kG*k[5mC]*dG*dG*dG*dT*dG*dT*dA*dG*d[5mC]*dA*k[5mC]*kT*kG; antisense) [compound 798897]” was tested, and the “% Inhibition” value was 60%.
With “798906 (kG*k[5mC]*kT*dA*d[5mC]*d[5mC]*dG*dG*d[5mC]*dT*dG*dT*dT*kG*kA*kA; antisense) [compound 798906]” the “% Inhibition” value was 0%.
In the case of “798907 (kG*k[5mC]*kG*dG*d[5mC]*dT*dA*d[5mC]*d[5mC]*dG*dG*d[5mC]*dT*kG*kT*kT; antisense) [compound 798907]”, the “% Inhibition” value was 0%.
In the case of “798908 (k[5mC]*kG*k[5mC]*dG*dG*d[5mC]*dT*dA*d[5mC]*d[5mC]*dG*dG*d[5mC]*kT*kG*kT; antisense) [compound 798908]”, the “% Inhibition” value was 0%.
For “798909 (kA*k[5mC]*kG*d[5mC]*dG*dG*d[5mC]*dT*dA*d[5mC]*d[5mC]*dG*dG*k[5mC]*kT*kG; antisense) [compound 798909]”, the “% Inhibition” value was 42%.
In the case of “798910 (k[5mC]*kA*k[5mC]*dG*d[5mC]*dG*dG*d[5mC]*dT*dA*d[5mC]*d[5mC]*dG*kG*k[5mC]*kT; antisense) [compound 798910]”, the “% Inhibition” value was 42%.
With “798911 (kG*k[5mC]*kA*d[5mC]*dG*d[5mC]*dG*dG*d[5mC]*dT*dA*d[5mC]*d[5mC]*kG*kG*k[5mC]; antisense) [compound 798911]” the “% Inhibition” value was 0%.
“798912 (kT*k[5mC]*k[5mC]*dG*d[5mC]*dA*d[5mC]*dG*d[5mC]*dG*dG*d[5mC]*dT*kA*k[5mC]*k[5mC]; antisense) [compound 798912]” was tested, and the “% Inhibition” value was 22%.
With “798913 (k[5mC]*k[5mC]*k[5mC]*dT*d[5mC]*d[5mC]*dG*d[5mC]*dA*d[5mC]*dG*d[5mC]*dG*kG*k[5mC]*kT; antisense) [compound 798913]” the “% Inhibition” value was 21%.
For “798914 (kG*kT*k[5mC]*d[5mC]*d[5mC]*d[5mC]*dT*d[5mC]*d[5mC]*dG*d[5mC]*dA*d[5mC]*kG*k[5mC]*kG; antisense) [compound 798914]”, the “% Inhibition” value was 56%.
For “798925 (kA*kG*kT*dA*dG*dT*dT*dT*dG*dA*dA*dG*dT*kG*kT*kG; antisense) [compound 798925]”, the “% Inhibition” value was 0%.
In the case of “798926 (antisense k[5mC]*kA*kA*dA*dG*dT*dA*dG*dT*dT*dT*dG*dA*kA*kG*kT) [compound 798926]”, the “% Inhibition” value was 17%.
In the case of “798927 (antisense k[5mC]*kA*kG*d[5mC]*dA*dA*dA*dG*dT*dA*dG*dT*dT*kT*kG*kA) [compound 798927]”, the “% Inhibition” value was 0%.
In the case of “798928 (antisense kT*kA*kG*d[5mC]*dA*dG*d[5mC]*dA*dA*dA*dG*dT*dA*kG*kT*kT) [compound 798928]”, the “% Inhibition” value was 6%.
“798929 (antisense kT*kA*kT*dT*dA*dG*d[5mC]*dA*dG*d[5mC]*dA*dA*dA*kG*kT*kA) [compound 798929]” was tested, and the “% Inhibition” value was 41%.
In the case of “798930 (antisense kG*kA*kA*dA*dA*dT*dA*dT*dT*dA*dG*d[5mC]*dA*kG*k[5mC]*kA) [compound 798930]”, the “% Inhibition” value was 62%.

Same assay, conditions: Hep3B cells, electroporation with 10,000 nM antisense oligonucleotide, approximately 24 hours, SMAD7 mRNA by RT-PCR (RTS5062), relative to untreated control cells
For “798898 (kA*kG*k[5mC]*dT*dG*d[5mC]*dT*dG*dA*dT*dG*dA*dA*k[5mC]*kT*kG; antisense) [compound 798898]”, the “% Inhibition” value was 2%.
“798899 (kG*kG*k[5mC]*dA*dG*d[5mC]*dT*dG*d[5mC]*dT*dG*dA*dT*kG*kA*kA; antisense) [compound 798899]” was tested, and the “% Inhibition” value was 13%.
In the case of “798900 (k[5mC]*k[5mC]*kA*dG*d[5mC]*dA*d[5mC]*dG*dG*dG*d[5mC]*dA*dG*k[5mC]*kT*kG; antisense) [compound 798900]”, the “% Inhibition” value was 0%.
With “798901 (k[5mC]*k[5mC]*kT*d[5mC]*dT*dA*dG*d[5mC]*d[5mC]*dA*dG*d[5mC]*dA*k[5mC]*kG*kG; antisense) [compound 798901]” the “% Inhibition” value was 30%.
In the case of “798902 (kT*kG*kA*d[5mC]*d[5mC]*dT*d[5mC]*dT*dA*dG*d[5mC]*d[5mC]*dA*kG*k[5mC]*kA; antisense) [compound 798902]”, the “% Inhibition” value was 54%.
With “798903 (kA*kA*kG*dA*dT*dG*dA*d[5mC]*d[5mC]*dT*d[5mC]*dT*dA*kG*k[5mC]*k[5mC]; antisense) [compound 798903]” the “% Inhibition” value was 48%.
“798904 (kT*kT*kG*dA*dA*dG*dA*dT*dG*dA*d[5mC]*d[5mC]*dT*k[5mC]*kT*kA; antisense) [compound 798904]” was tested, and the “% Inhibition” value was 23%.
“798905 (kG*kG*k[5mC]*dT*dG*dT*dT*dG*dA*dA*dG*dA*dT*kG*kA*k[5mC]; antisense) [compound 798905]” was tested, and the “% Inhibition” value was 35%.
For “798915 (kT*k[5mC]*kT*dG*dT*d[5mC]*d[5mC]*d[5mC]*d[5mC]*dT*d[5mC]*d[5mC]*dG*k[5mC]*kA*k[5mC]; antisense) [compound 798915]”, the “% Inhibition” value was 7%.
In the case of “798916 (k[5mC]*kG*k[5mC]*dT*d[5mC]*dT*dG*dT*d[5mC]*d[5mC]*d[5mC]*d[5mC]*dT*k[5mC]*k[5mC]*kG; antisense) [compound 798916]”, the “% Inhibition” value was 13%.
With “798917 (kG*k[5mC]*kT*d[5mC]*dA*d[5mC]*dG*d[5mC]*dT*d[5mC]*dT*dG*dT*k[5mC]*k[5mC]*k[5mC]; antisense) [compound 798917]” the “% Inhibition” value was 0%.
In the case of “798918 (kT*k[5mC]*kA*dG*d[5mC]*dT*d[5mC]*dA*d[5mC]*dG*d[5mC]*dT*d[5mC]*kT*kG*kT; antisense) [compound 798918]”, the “% Inhibition” value was 44%.
For “798919 (kT*kG*k[5mC]*dT*d[5mC]*dA*dG*d[5mC]*dT*d[5mC]*dA*d[5mC]*dG*k[5mC]*kT*k[5mC]; antisense) [compound 798919]”, the “% Inhibition” value was 45%.
For “798920 (kG*k[5mC]*k[5mC]*dT*dG*d[5mC]*dT*d[5mC]*dA*dG*d[5mC]*dT*d[5mC]*kA*k[5mC]*kG; antisense) [compound 798920]”, the “% Inhibition” value was 58%.
In the case of “798921 (kG*kG*k[5mC]*d[5mC]*dT*dG*d[5mC]*dT*d[5mC]*dA*dG*d[5mC]*dT*k[5mC]*kA*k[5mC]; antisense) [compound 798921]”, the “% Inhibition” value was 42%.
“798922 (kA*kA*kG*dT*dG*dT*dG*dG*d[5mC]*d[5mC]*dT*dG*d[5mC]*kT*k[5mC]*kA; antisense) [compound 798922]” was tested, and the “% Inhibition” value was 59%.
In the case of “798923 (kT*kT*kG*dA*dA*dG*dT*dG*dT*dG*dG*d[5mC]*d[5mC]*kT*kG*k[5mC]; antisense) [compound 798923]”, the “% Inhibition” value was 54%.

Same assay, conditions: Hep3B cells, electroporation with 10,000 nM antisense oligonucleotide, approximately 24 hours, primer probe set RTS5062, relative to untreated control cells
With “798924 (kA*kG*kT*dT*dT*dG*dA*dA*dG*dT*dG*dT*dG*kG*k[5mC]*k[5mC]; antisense) [compound 798924]” the “% Inhibition” value was 43%.
“798932 (antisense k[5mC]*kT*k[5mC]*dA*dG*dG*dA*dG*dG*dA*dA*dA*dA*kT*kA*kT) [compound 798932]” was tested, and the “% inhibition of SMAD7 mRNA expression” value was 0%.
In the case of “798933 (antisense kG*k[5mC]*kA*d[5mC]*dT*d[5mC]*dA*dG*dG*dA*dG*dG*dA*kA*kA*kA) [compound 798933]”, the “% inhibition of SMAD7 mRNA expression” value was 52%.
For “798934 (antisense kG*k[5mC]*kA*dA*dG*d[5mC]*dA*d[5mC]*dT*d[5mC]*dA*dG*dG*kA*kG*kG) [compound 798934]”, the “% inhibition of SMAD7 mRNA expression” value was 40%.
In the case of “798935 (antisense kA*kA*kA*dG*d[5mC]*dA*dA*dG*d[5mC]*dA*d[5mC]*dT*d[5mC]*kA*kG*kG) [compound 798935]”, the “% Inhibition” value was 48%.
For “798936 (antisense kG*k[5mC]*kA*dT*dG*dA*dA*dA*dA*dG*d[5mC]*dA*dA*kG*k[5mC]*kA) [compound 798936]”, the “% Inhibition” value was 14%.
With “798937 (antisense kG*kT*kT*dT*dG*d[5mC]*dA*dT*dG*dA*dA*dA*dA*kG*k[5mC]*kA) [compound 798937]” the “% Inhibition” value was 35%.
In the case of “798938 (antisense kA*k[5mC]*k[5mC]*dA*dA*dA*dG*dA*dG*dT*dT*dT*dG*k[5mC]*kA*kT) [compound 798938]”, the “% Inhibition” value was 15%.
“798939 (antisense kA*k[5mC]*kG*dA*d[5mC]*d[5mC]*dA*dA*dA*dG*dA*dG*dT*kT*kT*kG) [compound 798939]” was tested, and the “% Inhibition” value was 46%.
With “798940 (antisense kA*kA*kA*dA*d[5mC]*dG*dA*d[5mC]*d[5mC]*dA*dA*dA*dG*kA*kG*kT) [compound 798940]” the “% Inhibition” value was 29%.
In the case of “798941 (antisense kA*kA*kA*dA*dA*dA*dA*d[5mC]*dG*dA*d[5mC]*d[5mC]*dA*kA*kA*kG) [compound 798941]”, the “% Inhibition” value was 40%.
In the case of “798942 (antisense k[5mC]*kG*kA*dG*dA*dA*dG*dA*dA*dG*dA*dA*dA*kA*k[5mC]*k[5mC]) [compound 798942]”, the “% Inhibition” value was 35%.
“798943 (antisense k[5mC]*kG*kA*dG*dG*dA*d[5mC]*dG*dA*dG*dA*dA*dG*kA*kA*kG) [compound 798943]” was tested, and the “% inhibition of SMAD7 mRNA expression” value was 13%.
In the case of “798944 (antisense kA*kA*kA*d[5mC]*dG*dA*dG*dG*dA*d[5mC]*dG*dA*dG*kA*kA*kG) [compound 798944]”, the “% inhibition of SMAD7 mRNA expression” value was 3%.
For “798945 (antisense k[5mC]*kA*k[5mC]*dA*dA*dA*d[5mC]*dG*dA*dG*dG*dA*d[5mC]*kG*kA*kG) [compound 798945]”, the “% inhibition of SMAD7 mRNA expression” value was 19%.
For “798946 (antisense kG*kA*kA*d[5mC]*dA*d[5mC]*dA*dA*dA*d[5mC]*dG*dA*dG*kG*kA*k[5mC]) [compound 798946]”, the “% inhibition of SMAD7 mRNA expression” value was 4%.
With “798947 (antisense kA*k[5mC]*kA*dG*dA*dA*d[5mC]*dA*d[5mC]*dA*dA*dA*d[5mC]*kG*kA*kG) [compound 798947]” the “% inhibition of SMAD7 mRNA expression” value was 52%.
